Assays:
melanoma cell line A375 = assay: THP-1-mediated phagocytic activity against A375 (Example 2); assay type: cell-based, human; details: cells cultured 2 days with drug at 50 nM, then anti-CAPRIN-1 humanized antibody #1 5 μg/mL, FIG. 1
Protocol: (§1) Specifically, in each combination test group (a trametinib combination test group, a fluorouracil combination test group and an irinotecan combination test group), the indicated drug used in combination was applied to human cancer cells, and then the cancer cells were cocultured with human monocytic cells (THP-1) in the presence of the anti-CAPRIN-1 antibody, and the antibody-mediated phagocytic activity against the cancer cells by THP-1 was evaluated. The human-derived cancer cells used were melanoma cell line A375 (used only in the trametinib combination test group), colon cancer cell line HCT116, prostate cancer cell line DU145 (used only in the trametinib combination test group), and lung cancer cell line A549 (used only in the trametinib combination test group). […]
(§2) Each cancer cell line after the culture was dissociated with TrypLE Express (Thermo), and the cancer cells were stained by the addition of calcein-AM at a final concentration of 0.02 μg/mL and incubation at 37° C. for 30 minutes. […] Further, dead cells were stained with propidium iodide (PI) (final concentration: 0.1 μg/mL), followed by the measurement of fluorescence from the cells by flow cytometry. […] Thus, the phagocytic activity in this evaluation system was calculated as the ratio (%) of APC-positive/calcein-AM-positive cells to the whole calcein-AM-positive population.

[1] = system: lung cancer cell line A549; assay: THP-1-mediated phagocytic activity against A549 (Example 2); assay type: cell-based, human; details: cells cultured 2 days with drug at 250 nM, then anti-CAPRIN-1 humanized antibody #1 5 μg/mL, FIG. 1
Protocol: as §1, §2

[2] = system: colon cancer cell line HCT116; assay: THP-1-mediated phagocytic activity against HCT116 (Example 2); assay type: cell-based, human; details: cells cultured 2 days with drug at 50 nM, then anti-CAPRIN-1 humanized antibody #1 5 μg/mL, FIG. 1, 2
Protocol: as §1, with “group). On a 6-well plate, the human-derived cancer cells were cultured for 2 days in the presence of trametinib for the trametinib combination test group, and cultured for 2 days in the presence of the each drug used in combination for the fluorouracil combination test group and the irinotecan combination test group. The concentration of the drug used in combination was set to a concentration that decreased the proliferation rate of the cancer cells by about half at the completion of culture.” for “group).”
as §2

[3] = trametinib in itself (therefore also used as DMSO solvate); cited from earlier work
[4] = system: prostate cancer cell line DU145; assay: THP-1-mediated phagocytic activity against DU145 (Example 2); assay type: cell-based, human; details: cells cultured 2 days with drug at 250 nM, then anti-CAPRIN-1 humanized antibody #1 5 μg/mL, FIG. 1
Protocol: as §1, §2

CAPRIN-1 protein = biological target: T1, CAPRIN-1 protein (Homo sapiens, UniProt Q14444); assay: ELISA reactivity with CAPRIN-1 protein immobilized on a plate; assay type: binding
T1 construct: made in house
T1 sequence (Q14444 1-709): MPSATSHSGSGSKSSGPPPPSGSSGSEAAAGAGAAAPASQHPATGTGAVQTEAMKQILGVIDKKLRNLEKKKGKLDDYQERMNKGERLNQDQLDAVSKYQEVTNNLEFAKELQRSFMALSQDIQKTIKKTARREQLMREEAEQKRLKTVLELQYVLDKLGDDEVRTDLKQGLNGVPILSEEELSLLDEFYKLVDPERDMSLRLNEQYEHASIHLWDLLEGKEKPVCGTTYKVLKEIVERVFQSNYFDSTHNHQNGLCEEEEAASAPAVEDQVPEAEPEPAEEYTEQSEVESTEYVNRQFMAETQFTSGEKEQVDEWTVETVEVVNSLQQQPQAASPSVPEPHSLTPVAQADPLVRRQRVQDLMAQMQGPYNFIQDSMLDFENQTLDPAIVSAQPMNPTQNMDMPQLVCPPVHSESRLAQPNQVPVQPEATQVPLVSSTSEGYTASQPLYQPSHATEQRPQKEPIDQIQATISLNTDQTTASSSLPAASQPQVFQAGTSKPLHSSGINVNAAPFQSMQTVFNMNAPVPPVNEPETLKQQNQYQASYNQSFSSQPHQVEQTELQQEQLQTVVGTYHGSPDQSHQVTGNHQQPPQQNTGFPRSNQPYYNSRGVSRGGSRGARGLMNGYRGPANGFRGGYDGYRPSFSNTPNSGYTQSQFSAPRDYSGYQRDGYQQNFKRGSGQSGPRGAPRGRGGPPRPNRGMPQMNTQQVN
Protocol: One hundred (100) μg of a human CAPRIN-1 recombinant protein produced according to Example 3 of WO2010/016526 was mixed with a MPL+TDM adjuvant (Sigma) in an amount equivalent to that of the recombinant protein. The mixture was used as an antigen solution per mouse. The antigen solution was administered intraperitoneally to 6-week-old Balb/c mice (Japan SLC Inc.) and then further administered 3 times […] every week for completion of immunization. A spleen was removed on day 3 after the final immunization and then ground between two sterilized glass slides. Spleen cells were obtained by repeating the following procedure three times: washing with PBS (-) (Nissui Corporation), centrifuging at 1500 rpm for 10 minutes, and removing supernatant. The obtained spleen cells were mixed with mouse myeloma cell SP2/0 (purchased from ATCC) at a ratio of 10:1. The PEG solution prepared by mixing 200 μl of RPMI1640 medium containing 10% FBS heated at 37° C. and 800 μl of PEG1500 (Boehringer) was added to the cells. The solution was incubated for 5 minutes for cell fusion. Centrifugation was performed at 1700 rpm for 5 minutes to remove supernatants. […] Absorbance at 450 nm and absorbance at 595 nm were measured using an absorption spectrometer. As a result, a plurality of hybridomas producing antibodies with high absorbances were selected. […]

## CC(=O)Nc1cccc(-n2c(=O)n(C3CC3)c(=O)c3c(Nc4ccc(I)cc4F)n(C)c(=O)c(C)c32)c1 [trametinib, N-[3-[3-cyclopropyl-5-(2-fluoro-4-iodoanilino)-6,8-dimethyl-2,4,7-trioxopyrido[4,3-d]pyrimidin-1-yl]phenyl]acetamide]
Melanoma cell line A375
  phagocytic activity against cancer cells: 49%
[1]
  phagocytic activity against cancer cells: 7%
[2]
  phagocytic activity against cancer cells: 45%
[3]
  solubility: poorly soluble
[4]
  phagocytic activity against cancer cells: 9%

B1: monoclonal antibody against CAPRIN-1 described in WO2013/125630: mouse monoclonal antibody; heavy-chain variable region SEQ ID NO: 114, light-chain variable region SEQ ID NO: 115; parent of humanized … (antibody, listed as Mus musculus, V domains shown)
VH: GPELVKPGASVKMSCKASGYTFTSYVMHWVKQKPGQGLEWIGYINPYNDGTKYNEKFKGKATLTSDKSSSTAYMELSSLTSEDSAVYYCARRYYYGSSGGYFDVWAQDHVRT
VL: DVQITQSPSYLAASPGETITINCRASKSISKYLAWYQEKPGKTNKLLIYSGSTLQSGIPSRFSGSGSGTDFTLTISSLEPEDFAMYYCQQHNEYPYTFGGGTKLEIKR
notes: mouse monoclonal antibody; parent of humanized antibody #1
CAPRIN-1 protein
  specific reactivity to CAPRIN-1 protein: exhibiting reactivity
